Laboratory results: patent US20220378706A1, “PHARMACEUTICAL COMPOSITION COMPRISING PDE9 INHIBITOR” (Eisai R&D Management Co., Ltd., priority 2017, published 2022)
Like-named read-outs stand apart in the source and are kept apart here.

Assay: Multiple ascending dose study: plasma pharmacokinetics
Format: in vivo
Settings: human, po; for Tmax: read-out: tmax Median
Protocol: Four sequential cohorts of healthy participants (≥50 years and ≤85 years old) were treated with multiple ascending doses of Compound A up to the maximum tolerated dose (MTD). A total of 6 participants per cohort were randomized to Compound A. Proposed doses of Compound A were:
Participants received Compound A capsules, orally once daily (QD) on Days 1 to 14 after an overnight fast of at least 10 hours. Compound A was administered orally with 240 milliliter (mL) (8 fluid ounces) of water.
1) Maximum drug concentration (Cmax) [Time Frame: Day 1 and Day 14]
Blood samples were collected on Day 1 at predose and postdose 0.5 (30 minutes), 1, 1.5, 2, 3, 4, 5, 6, 8, 12, and 18 hours; Day 14 (at predose and postdose 0.5, 1, 1.5, 2, 3, 4, 5, 6, 8, 12, and 18 hours); and Day 15 (24 hours postdose from Day 14).
2) Mean time to reach maximum (peak) drug concentration (tmax) [Time Frame: Day 1 and Day 14]
4) Mean area under the concentration-time curve from zero time extrapolated to infinity (AUC(0-inf)) [Time Frame: Day 14]

## COc1ncc(C)c(-c2ccc3c(c2)[nH]c(=O)c2cnn([C@H]4CCOC4)c23)c1C [Compound A, (S)-7-(2-methoxy-3,5-dimethylpyridin-4-yl)-1-(tetrahydrofuran-3-yl)-1H-pyrazolo[4,3-c]quin olin-4(5H)-one]
50 mg, Part C, 50 mg oral, read-out: Cmax GM (% CV)
  Cmax: 594 ng/mL
50 mg, Part C, 50 mg oral, read-out: Cmax Mean (SD)
  Cmax: 608 ng/mL
50 mg, Part C, 50 mg oral, read-out: Cmax Median
  Cmax: 590 ng/mL
50 mg, Part C, 50 mg oral
  Tmax: 1.98 h
100 mg, Day 1, 100 mg QD oral, read-out: AUC(0-24 h) GM (% CV)
  AUC(0-t): 5230 ng·h/mL
100 mg, Day 1, 100 mg QD oral, read-out: AUC(0-24 h) Mean (SD)
  AUC(0-t): 5250 ng·h/mL
100 mg, Day 1, 100 mg QD oral, read-out: AUC(0-24 h) Median
  AUC(0-t): 5180 ng·h/mL
100 mg, Day 1, 100 mg QD oral, read-out: Cmax GM (% CV)
  Cmax: 366 ng/mL
100 mg, Day 1, 100 mg QD oral, read-out: Cmax Mean (SD)
  Cmax: 373 ng/mL
100 mg, Day 1, 100 mg QD oral, read-out: Cmax Median
  Cmax: 344 ng/mL
100 mg, Day 1, 100 mg QD oral
  Tmax: 2.53 h
100 mg, Day 14, 100 mg QD oral, read-out: AUC(0-24 h) GM (% CV)
  AUC(0-t): 16600 ng·h/mL
100 mg, Day 14, 100 mg QD oral, read-out: AUC(0-24 h) Mean (SD)
  AUC(0-t): 16900 ng·h/mL
100 mg, Day 14, 100 mg QD oral, read-out: AUC(0-24 h) Median
  AUC(0-t): 16800 ng·h/mL
100 mg, Day 14, 100 mg QD oral, read-out: AUC(0-inf) GM (% CV)
  AUC(0-inf): 56400 ng·h/mL
100 mg, Day 14, 100 mg QD oral, read-out: AUC(0-inf) Mean (SD)
  AUC(0-inf): 58600 ng·h/mL
100 mg, Day 14, 100 mg QD oral, read-out: AUC(0-inf) Median
  AUC(0-inf): 62700 ng·h/mL
100 mg, Day 14, 100 mg QD oral, read-out: Cmax GM (% CV)
  Cmax: 1010 ng/mL
100 mg, Day 14, 100 mg QD oral, read-out: Cmax Mean (SD)
  Cmax: 1020 ng/mL
100 mg, Day 14, 100 mg QD oral, read-out: Cmax Median
  Cmax: 1030 ng/mL
100 mg, Day 14, 100 mg QD oral
  Tmax: 2.56 h
200 mg, Day 1, 200 mg QD oral, read-out: AUC(0-24 h) GM (% CV)
  AUC(0-t): 8650 ng·h/mL
200 mg, Day 1, 200 mg QD oral, read-out: AUC(0-24 h) Mean (SD)
  AUC(0-t): 9050 ng·h/mL
200 mg, Day 1, 200 mg QD oral, read-out: AUC(0-24 h) Median
  AUC(0-t): 10400 ng·h/mL
200 mg, Day 1, 200 mg QD oral, read-out: Cmax GM (% CV)
  Cmax: 687 ng/mL
200 mg, Day 1, 200 mg QD oral, read-out: Cmax Mean (SD)
  Cmax: 740 ng/mL
200 mg, Day 1, 200 mg QD oral, read-out: Cmax Median
  Cmax: 813 ng/mL
200 mg, Day 1, 200 mg QD oral
  Tmax: 2.01 h
200 mg, Day 14, 200 mg QD oral, read-out: AUC(0-24 h) GM (% CV)
  AUC(0-t): 22800 ng·h/mL
200 mg, Day 14, 200 mg QD oral, read-out: AUC(0-24 h) Mean (SD)
  AUC(0-t): 23100 ng·h/mL
200 mg, Day 14, 200 mg QD oral, read-out: AUC(0-24 h) Median
  AUC(0-t): 21300 ng·h/mL
200 mg, Day 14, 200 mg QD oral, read-out: AUC(0-inf) GM (% CV)
  AUC(0-inf): 70500 ng·h/mL
200 mg, Day 14, 200 mg QD oral, read-out: AUC(0-inf) Mean (SD)
  AUC(0-inf): 72200 ng·h/mL
200 mg, Day 14, 200 mg QD oral, read-out: AUC(0-inf) Median
  AUC(0-inf): 61900 ng·h/mL
200 mg, Day 14, 200 mg QD oral, read-out: Cmax GM (% CV)
  Cmax: 1680 ng/mL
200 mg, Day 14, 200 mg QD oral, read-out: Cmax Mean (SD)
  Cmax: 1730 ng/mL
200 mg, Day 14, 200 mg QD oral, read-out: Cmax Median
  Cmax: 1950 ng/mL
200 mg, Day 14, 200 mg QD oral
  Tmax: 2 h
400 mg, Day 1, 400 mg QD oral, Japanese, read-out: AUC(0-24 h) GM (% CV)
  AUC(0-t): 18300 ng·h/mL
400 mg, Day 1, 400 mg QD oral, Japanese, read-out: AUC(0-24 h) Mean (SD)
  AUC(0-t): 18400 ng·h/mL
400 mg, Day 1, 400 mg QD oral, Japanese, read-out: AUC(0-24 h) Median
  AUC(0-t): 18900 ng·h/mL
400 mg, Day 1, 400 mg QD oral, Japanese, read-out: Cmax GM (% CV)
  Cmax: 1510 ng/mL
400 mg, Day 1, 400 mg QD oral, Japanese, read-out: Cmax Mean (SD)
  Cmax: 1520 ng/mL
400 mg, Day 1, 400 mg QD oral, Japanese, read-out: Cmax Median
  Cmax: 1510 ng/mL
400 mg, Day 1, 400 mg QD oral, Japanese
  Tmax: 2 h
400 mg, Day 1, 400 mg QD oral, Non-Japanese, read-out: AUC(0-24 h) GM (% CV)
  AUC(0-t): 14500 ng·h/mL
400 mg, Day 1, 400 mg QD oral, Non-Japanese, read-out: AUC(0-24 h) Mean (SD)
  AUC(0-t): 14600 ng·h/mL
400 mg, Day 1, 400 mg QD oral, Non-Japanese, read-out: AUC(0-24 h) Median
  AUC(0-t): 14700 ng·h/mL
400 mg, Day 1, 400 mg QD oral, Non-Japanese, read-out: Cmax GM (% CV)
  Cmax: 1100 ng/mL
400 mg, Day 1, 400 mg QD oral, Non-Japanese, read-out: Cmax Mean (SD)
  Cmax: 1100 ng/mL
400 mg, Day 1, 400 mg QD oral, Non-Japanese, read-out: Cmax Median
  Cmax: 1140 ng/mL
400 mg, Day 1, 400 mg QD oral, Non-Japanese
  Tmax: 1.76 h
400 mg, Day 14, 400 mg QD oral, Japanese, read-out: AUC(0-24 h) GM (% CV)
  AUC(0-t): 42700 ng·h/mL
400 mg, Day 14, 400 mg QD oral, Japanese, read-out: AUC(0-24 h) Mean (SD)
  AUC(0-t): 42900 ng·h/mL
400 mg, Day 14, 400 mg QD oral, Japanese, read-out: AUC(0-24 h) Median
  AUC(0-t): 43200 ng·h/mL
400 mg, Day 14, 400 mg QD oral, Japanese, read-out: AUC(0-inf) GM (% CV)
  AUC(0-inf): 122000 ng·h/mL
400 mg, Day 14, 400 mg QD oral, Japanese, read-out: AUC(0-inf) Mean (SD)
  AUC(0-inf): 125000 ng·h/mL
400 mg, Day 14, 400 mg QD oral, Japanese, read-out: AUC(0-inf) Median
  AUC(0-inf): 120000 ng·h/mL
400 mg, Day 14, 400 mg QD oral, Japanese, read-out: Cmax GM (% CV)
  Cmax: 3080 ng/mL
400 mg, Day 14, 400 mg QD oral, Japanese, read-out: Cmax Mean (SD)
  Cmax: 3100 ng/mL
400 mg, Day 14, 400 mg QD oral, Japanese, read-out: Cmax Median
  Cmax: 3250 ng/mL
400 mg, Day 14, 400 mg QD oral, Japanese
  Tmax: 1.5 h
400 mg, Day 14, 400 mg QD oral, Non-Japanese, read-out: AUC(0-24 h) GM (% CV)
  AUC(0-t): 39200 ng·h/mL
400 mg, Day 14, 400 mg QD oral, Non-Japanese, read-out: AUC(0-24 h) Mean (SD)
  AUC(0-t): 40300 ng·h/mL
400 mg, Day 14, 400 mg QD oral, Non-Japanese, read-out: AUC(0-24 h) Median
  AUC(0-t): 43900 ng·h/mL
400 mg, Day 14, 400 mg QD oral, Non-Japanese, read-out: AUC(0-inf) GM (% CV)
  AUC(0-inf): 121000 ng·h/mL
400 mg, Day 14, 400 mg QD oral, Non-Japanese, read-out: AUC(0-inf) Mean (SD)
  AUC(0-inf): 135000 ng·h/mL
400 mg, Day 14, 400 mg QD oral, Non-Japanese, read-out: AUC(0-inf) Median
  AUC(0-inf): 141000 ng·h/mL
400 mg, Day 14, 400 mg QD oral, Non-Japanese, read-out: Cmax GM (% CV)
  Cmax: 2740 ng/mL
400 mg, Day 14, 400 mg QD oral, Non-Japanese, read-out: Cmax Mean (SD)
  Cmax: 2820 ng/mL
400 mg, Day 14, 400 mg QD oral, Non-Japanese, read-out: Cmax Median
  Cmax: 3050 ng/mL
400 mg, Day 14, 400 mg QD oral, Non-Japanese
  Tmax: 1.79 h
